IC50 data for 18 compounds are collected here from patent publication US8772343B2, “Chemical compounds” (Pfizer Limited, priority 2010, dated 2014).

The structures appear in SMILES notation.

T1 sequence (Q15858 whole entry): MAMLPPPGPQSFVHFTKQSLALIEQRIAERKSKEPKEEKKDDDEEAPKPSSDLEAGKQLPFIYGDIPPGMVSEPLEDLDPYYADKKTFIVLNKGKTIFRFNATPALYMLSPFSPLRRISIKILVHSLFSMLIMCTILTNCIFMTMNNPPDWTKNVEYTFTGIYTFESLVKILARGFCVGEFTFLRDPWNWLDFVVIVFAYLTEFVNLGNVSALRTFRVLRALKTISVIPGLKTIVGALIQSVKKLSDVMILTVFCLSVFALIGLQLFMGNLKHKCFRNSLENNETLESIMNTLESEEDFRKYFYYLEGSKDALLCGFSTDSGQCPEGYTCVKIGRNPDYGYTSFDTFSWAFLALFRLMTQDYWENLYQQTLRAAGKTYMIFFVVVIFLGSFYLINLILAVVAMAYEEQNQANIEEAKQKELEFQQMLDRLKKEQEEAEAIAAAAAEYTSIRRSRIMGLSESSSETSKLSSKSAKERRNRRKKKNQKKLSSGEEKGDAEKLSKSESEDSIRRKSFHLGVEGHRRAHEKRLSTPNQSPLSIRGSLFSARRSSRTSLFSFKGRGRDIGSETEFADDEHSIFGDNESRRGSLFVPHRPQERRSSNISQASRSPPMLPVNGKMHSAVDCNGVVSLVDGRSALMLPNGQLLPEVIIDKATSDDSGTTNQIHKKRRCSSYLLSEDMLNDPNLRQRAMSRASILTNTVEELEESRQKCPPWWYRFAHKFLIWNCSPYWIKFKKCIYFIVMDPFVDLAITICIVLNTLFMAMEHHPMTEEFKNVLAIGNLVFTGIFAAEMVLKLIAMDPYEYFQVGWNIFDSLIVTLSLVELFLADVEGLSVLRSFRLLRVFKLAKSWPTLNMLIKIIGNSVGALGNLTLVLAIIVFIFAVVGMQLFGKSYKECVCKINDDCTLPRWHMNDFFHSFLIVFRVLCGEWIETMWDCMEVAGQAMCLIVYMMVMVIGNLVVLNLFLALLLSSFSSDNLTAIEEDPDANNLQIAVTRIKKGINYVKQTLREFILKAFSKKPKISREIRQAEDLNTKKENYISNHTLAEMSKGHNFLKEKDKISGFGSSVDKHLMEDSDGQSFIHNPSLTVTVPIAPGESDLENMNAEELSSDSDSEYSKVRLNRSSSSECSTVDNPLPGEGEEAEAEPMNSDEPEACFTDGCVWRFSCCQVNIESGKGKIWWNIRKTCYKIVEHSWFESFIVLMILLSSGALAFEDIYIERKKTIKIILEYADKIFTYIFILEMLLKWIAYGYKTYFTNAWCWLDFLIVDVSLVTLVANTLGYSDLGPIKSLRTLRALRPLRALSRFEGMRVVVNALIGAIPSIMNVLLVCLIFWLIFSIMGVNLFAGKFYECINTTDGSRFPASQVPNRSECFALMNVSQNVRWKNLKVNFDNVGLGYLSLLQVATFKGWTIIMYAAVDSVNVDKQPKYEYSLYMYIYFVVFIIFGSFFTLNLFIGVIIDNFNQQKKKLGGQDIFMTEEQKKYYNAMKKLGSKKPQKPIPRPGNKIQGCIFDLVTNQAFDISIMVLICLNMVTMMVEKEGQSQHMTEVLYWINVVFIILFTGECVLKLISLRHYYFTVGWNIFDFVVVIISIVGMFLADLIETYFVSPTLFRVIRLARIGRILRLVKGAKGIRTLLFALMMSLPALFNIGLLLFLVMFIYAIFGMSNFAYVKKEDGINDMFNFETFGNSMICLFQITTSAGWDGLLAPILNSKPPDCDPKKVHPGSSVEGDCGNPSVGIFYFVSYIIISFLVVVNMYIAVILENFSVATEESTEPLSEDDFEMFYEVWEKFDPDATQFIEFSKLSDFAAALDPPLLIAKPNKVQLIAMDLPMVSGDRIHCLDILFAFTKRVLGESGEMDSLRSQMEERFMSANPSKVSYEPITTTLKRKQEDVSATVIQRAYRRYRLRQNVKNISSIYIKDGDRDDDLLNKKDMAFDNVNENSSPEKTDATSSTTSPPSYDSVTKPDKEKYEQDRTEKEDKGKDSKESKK

One assay addresses T1, Nav1.7 (or SCN9A) channel (Homo sapiens, UniProt Q15858).
T1 construct: expressed in transfected cells
Put plainly: Nav1.7 PatchXpress automated whole-cell electrophysiology in HEK cells expressing hSCN9A. Format: cell-based. The settings on record: estimated IC50 from single point data, PatchXpress assay, held at V1/2 of inactivation, read-out: Nav1.7 EIC50. Summed up:
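Stably transfected HEK cells recorded by whole-cell patch clamp (conventional or PatchXpress) at room temperature (22-24 °C) in pH 7.4 HEPES-buffered saline. Current evoked by a 20 msec step to 0 mV after an 8 s prepulse at the measured inactivation V1/2. Single-concentration % inhibition converted to estimated IC50 (EIC50); inhibition values <20% or >80% excluded.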
Take `COc1ncccc1-c1cc(C(=O)NS(C)(=O)=O)ccc1Oc1ccc(Cl)cc1F` [Example 64, 4-(4-chloro-2-fluorophenoxy)-3-(2-methoxypyridin-3-yl)-N-(methylsulfonyl)benzamide]: the IC50 is 0.54 µM. Consider `CS(=O)(=O)NC(=O)c1ccc(Oc2ccc(Cl)cc2)c(-c2ccc(Cl)cn2)c1` [Example 37, 4-(4-chlorophenoxy)-3-(5-chloropyridin-2-yl)-N-(methylsulfonyl)benzamide], for which the IC50 is 0.34 µM. The same measure, in the same setting: for `CCOc1ncccc1-c1cc(C(=O)NS(C)(=O)=O)ccc1Oc1ccc(Cl)cc1` [Example 8, 4-(4-Chlorophenoxy)-3-(2-ethoxypyridin-3-yl)-N-(methylsulfonyl)benzamide] the value was 0.049 µM; for `CS(=O)(=O)NC(=O)c1ccc(Oc2ccc(Cl)cc2)c(-c2cc[nH]n2)c1` [Example 10, 4-(4-Chlorophenoxy)-N-(methylsulfonyl)-3-(1H-pyrazol-3-yl)benzamide], 0.94 µM.

For `COc1ncccc1-c1cc(C(=O)NS(C)(=O)=O)ccc1Oc1cccc(C(F)(F)F)c1` [Example 61, 3-(2-methoxypyridin-3-yl)-N-(methylsulfonyl)-4-[3-(trifluoromethyl)phenoxy]benzamide], the IC50 is 0.066 µM. On the same count and under the same terms, then `Cc1n[nH]c(C)c1-c1cc(C(=O)NS(C)(=O)=O)ccc1Oc1ccc(Cl)cc1` [Example 14, 4-(4-chlorophenoxy)-3-(3,5-dimethyl-1H-pyrazol-4-yl)-N-(methylsulfonyl)benzamide], with above 3 µM; and `COc1ncccc1-c1cc(C(=O)NS(C)(=O)=O)ccc1Oc1ccc(C(F)(F)F)cc1` [Example 87, 3-(2-methoxypyridin-3-yl)-N-(methylsulfonyl)-4-[4-(trifluoromethyl)phenoxy]benzamide], with 0.086 µM.

Another assay has as its target T1, Nav1.7 (or SCN9A) channel. Briefly: Nav1.7 Ionworks Quattro automated electrophysiology in HEK cells expressing hSCN9A. The format is cell-based. The conditions noted are these: estimated IC50, values marked (IW), Ionworks Quattro assay, read-out: Nav1.7 EIC50 (IW). On the procedure:
The ability of the compounds of formula (I) to block the Nav1.7 (or SCN9A) channel were measured using the assay described below. Human Embryonic Kidney (HEK) cells were transfected with an hSCN9A construct using lipofectamine reagent (Invitrogen), using standard techniques. Cells stably expressing the hSCN9A constructs were identified by their resistance to G-418 (400 μg/ml). Clones were screened for expression using the whole-cell voltage-clamp technique. HEK cells stably transfected with hSCN9A were maintained in DMEM medium supplemented with 10% heat-inactivated fetal bovine serum and 400 μg/ml G-418 in an incubator at 37° C. with a humidified atmosphere of 10% CO2. For HTS, cells were harvested from flasks by trypsinization and replated in an appropriate multi-well plate (typically 96 or 384 wells/plate) such that confluence would be achieved within 24 hours of plating. For electrophysiological studies, cells were removed from the culture flask by brief trypsinization and re-plated at low density onto glass cover slips. Cells were typically used for electrophysiological experiments within 24 to 72 hours after plating. Electrophysiological assays were also conducted using the Ionworks Quattro automated electrophysiological platform (Molecular Devices Corp). Intracellular and extracellular solutions were as described above with the following changes, 120 μg/ml amphotericin was added to the intracellular solution to perforate the membrane and allow electrical access to the cells. hSCN9A cells were grown and harvested as for PatchXpress and cells were resuspended in extracellular solution at a concentration of 1×10^6 cells/ml. The onboard liquid handling facility of the Ionworks Quattro was used for dispensing cells and application of test compounds. A voltage protocol was then applied that comprised of a voltage step to fully inactivate the sodium channels, followed by a brief hyperpolarized recovery period to allow partial recovery from inactivation for unblocked sodium channels, followed by a test depolarized voltage step to assess magnitude of inhibition by test compound. Compound effect was determined based on current amplitude difference between the pre-compound addition and post-compound addition scans. Compounds of the Examples were tested in the assays described above and found to have the Nav1.7 EIC50 (uM) values specified in the table below. All data are derived from the PatchXpress assay unless expressly stated otherwise.
As to `COc1ncc(-c2cc(C(=O)NS(C)(=O)=O)ccc2Oc2ccc(Cl)cc2)cn1` [Example 40, 4-(4-chlorophenoxy)-3-(2-methoxypyrimidin-5-yl)-N-(methylsulfonyl)benzamide], the IC50 is 69 µM. On the same count and under the same terms, then `CS(=O)(=O)NC(=O)c1ccc(Oc2ccc(Cl)cc2)c(-c2cccc(C#N)c2)c1` [Example 26, 6-(4-chlorophenoxy)-3′-cyano-N-(methylsulfonyl)-biphenyl-3-carboxamide], with 17 µM; and `CS(=O)(=O)NC(=O)c1ccc(Oc2ccc(Cl)cc2)c(-c2cccc(Cl)c2)c1` [Example 22, 3′-chloro-6-(4-chlorophenoxy)-N-(methylsulfonyl)-biphenyl-3-carboxamide], with 15 µM; and `CS(=O)(=O)NC(=O)c1ccc(Oc2ccc(Cl)cc2)c(-c2cncc(C#N)c2)c1` [Example 44, 4-(4-chlorophenoxy)-3-(5-cyanopyridin-3-yl)-N-(methylsulfonyl)benzamide], with 17 µM. On the same count and under the same terms, then `CS(=O)(=O)NC(=O)c1ccc(Oc2ccc(Cl)cc2)c(-c2ccc(C#N)cc2)c1` [Example 25, 6-(4-chlorophenoxy)-4′-cyano-N-(methylsulfonyl)-biphenyl-3-carboxamide], with 10 µM; and `Cc1ncc(-c2cc(C(=O)NS(C)(=O)=O)ccc2Oc2ccc(Cl)cc2)cn1` [Example 46, 4-(4-chlorophenoxy)-3-(2-methylpyrimidin-5-yl)-N-(methylsulfonyl)benzamide], with 151 µM.

As to `CS(=O)(=O)NC(=O)c1ccc(Oc2ccc(Cl)cc2)c(-c2cccc(OC(F)(F)F)c2)c1` [Example 28, 6-(4-chlorophenoxy)-N-(methylsulfonyl)-3′-(trifluoromethoxy)biphenyl-3-carboxamide], the IC50 was 16 µM. Same read-out and setting: for `CS(=O)(=O)NC(=O)c1ccc(Oc2ccc(Cl)cc2)c(-c2cccc(F)c2)c1` [Example 17, 6-(4-chlorophenoxy)-3′-fluoro-N-(methylsulfonyl)-biphenyl-3-carboxamide] the value was 13 µM; for `CS(=O)(=O)NC(=O)c1ccc(Oc2ccc(Cl)cc2)c(-c2cccc(C(F)(F)F)c2)c1` [Example 13, 6-(4-chlorophenoxy)-N-(methylsulfonyl)-3′-(trifluoromethyl)biphenyl-3-carboxamide], 24 µM; for `CS(=O)(=O)NC(=O)c1ccc(Oc2ccc(Cl)cc2)c(-c2cn[nH]c2)c1` [Example 30, 4-(4-chlorophenoxy)-N-(methylsulfonyl)-3-(1H-pyrazol-4-yl)benzamide], 18 µM.

With `CS(=O)(=O)NC(=O)c1ccc(Oc2ccc(Cl)cc2)c(-c2cccnc2)c1` [Example 19, 4-(4-chlorophenoxy)-N-(methylsulfonyl)-3-pyridin-3-ylbenzamide], the IC50 is 28 µM.
